In patent publication US20230407243A1, “GENETIC PLATFORM TO INVESTIGATE THE FUNCTIONS OF BACTERIAL DRUG EFFLUX PUMPS” (priority 2022, published 2023):
Where two headings read alike, the source gives them in different places.

Legend:
Type in all cases: cell-based, Escherichia coli
[1] = tested on: E. coli EKO-35; test: microbe, parasite or virus in culture; settings: for Fold change of MICs: EKO-35 compared to EKO-35 (reference); for MIC: Escherichia coli, EKO35, technical duplicate
In short: (§1)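 Steps: LB overnight culture at 37 °C; resuspension in PBS to OD600 ~1.0; 1/2000 dilution in MHB II; addition to 2-fold serial compound dilutions (duplicate); 18 h shaking incubation at 37 °C; OD600 read, with pre-read subtracted.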

[2] = tested on: E. coli ΔtolC; test: microbe, parasite or virus in culture; settings: for MIC: Escherichia coli, 18 h, read-out: Minimum Inhibitory Concentration, ΔtolC; for Minimum inhibitory concentration (MIC), ΔtolC: Table 10, without pore, technical duplicate
In short: as §1

[3] = tested on: wild-type E. coli K-12 str. BW25113; test: microbe, parasite or virus in culture; settings: Escherichia coli, BW25113, technical duplicate
In short: as §1

[4] = tested on: EKO-35 araC::acrBD408A; test: MIC susceptibility profiling, efflux platform; settings: for Fold change of MICs: EKO-35 araC::acrBD408A compared to EKO-35; for MIC: Escherichia coli, Table 13B, non-porinated, technical duplicate, read-out: Minimum Inhibitory Concentration, EKO-35 araC::acrBD408A
In short: as §1

[5] = tested on: EKO-35 araC::acrEF; test: MIC susceptibility profiling, efflux platform; settings: for Fold change of MICs: EKO-35 araC::acrEF compared to EKO-35; for MIC: Escherichia coli, Table 13A, non-porinated, technical duplicate, read-out: Minimum Inhibitory Concentration, EKO-35 araC::acrEF
In short: as §1

[6] = tested on: EKO-35 araC::mdtBC; test: MIC susceptibility profiling, efflux platform; settings: for Fold change of MICs: EKO-35 araC::mdtBC compared to EKO-35; for MIC: Escherichia coli, Table 13B, non-porinated, technical duplicate, read-out: Minimum Inhibitory Concentration, EKO-35 araC::mdtBC
In short: as §1

[7] = tested on: wild-type (WT) K-12-Pore; test: microbe, parasite or virus in culture; settings: Escherichia coli, technical duplicate
In short: (§2)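 Strains carry the fhuA ΔC/Δ4L pore integrated between glmS and pstS under a constitutive promoter, with pore activity checked by vancomycin susceptibility. Overnight LB cultures were adjusted in PBS pH 7.4 to OD600 ~1.0 and diluted 1/2000 into MHB II. 2-fold compound titrations were read by OD600 after 18 h at 37 °C.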

[8] = tested on: ΔtolC-Pore; test: microbe, parasite or virus in culture; settings: for MIC: Escherichia coli, 18 h, read-out: Minimum inhibitory concentration, ΔtolC-Pore; for Minimum inhibitory concentration (MIC), Pore ΔtolC: Table 10, with pore, technical duplicate
In short: as §2

[9] = tested on: EKO-35-Pore; test: MIC susceptibility profiling, porinated strain; settings: for Fold changes of MICs: EKO-35-Pore compared to EKO-35-Pore (reference); for MIC: Escherichia coli, technical duplicate
In short: as §2

[10] = tested on: EKO-35 araC::acrB Pore; test: MIC susceptibility profiling, porinated efflux platform; settings: for Fold changes of MICs: EKO-35 araC::acr-B Pore compared to EKO-35-Pore; for MIC: Escherichia coli, Table 14A, porinated, technical duplicate, read-out: Minimum inhibitory concentration, EKO-35 araC::acrB Pore
In short: as §2

[11] = tested on: EKO-35 araC::acrBD408A Pore; test: as above; settings: for Fold changes of MICs: EKO-35 araC::acrBD408A Pore compared to EKO-35-Pore; for MIC: Escherichia coli, EKO-35 araC::acrBD408A Pore, technical duplicate, read-out: Minimum inhibitory concentration
In short: as §2

[12] = tested on: EKO-35 araC::acrD Pore; test: as above; settings: for Fold changes of MICs: EKO-35 araC::acrD Pore compared to EKO-35-Pore; for MIC: Escherichia coli, Table 14A, porinated, technical duplicate, read-out: Minimum inhibitory concentration, EKO-35 araC::acrD Pore
In short: as §2

[13] = tested on: EKO-35 araC::acrEF Pore; test: as above; settings: for Fold changes of MICs: EKO-35 araC::acrEF Pore compared to EKO-35-Pore; for MIC: Escherichia coli, Table 14A, porinated, technical duplicate, read-out: Minimum inhibitory concentration, EKO-35 araC::acrEF Pore
In short: as §2

[14] = tested on: EKO-35 araC::emrAB Pore; test: as above; settings: for Fold changes of MICs: EKO-35 araC::emrAB Pore compared to EKO-35-Pore; for MIC: Escherichia coli, EKO-35 araC::emrAB Pore, technical duplicate, read-out: Minimum inhibitory concentration
In short: as §2

[15] = tested on: EKO-35 araC::emrKY Pore; test: as above; settings: for Fold changes of MICs: EKO-35 araC::emrKY Pore compared to EKO-35-Pore; for MIC: Escherichia coli, EKO-35 araC::emrKY Pore, technical duplicate, read-out: Minimum inhibitory concentration
In short: as §2

[16] = tested on: EKO-35 araC::macAB Pore; test: as above; settings: for Fold changes of MICs: EKO-35 araC::macAB Pore compared to EKO-35-Pore; for MIC: Escherichia coli, EKO-35 araC::macAB Pore, technical duplicate, read-out: Minimum inhibitory concentration
In short: as §2

[17] = tested on: EKO-35 araC::mdtBC Pore; test: as above; settings: for Fold changes of MICs: EKO-35 araC::mdtBC Pore compared to EKO-35-Pore; for MIC: Escherichia coli, EKO-35 araC::mdtBC Pore, technical duplicate, read-out: Minimum inhibitory concentration
In short: as §2

[18] = tested on: EKO-35 araC::mdtEF Pore; test: as above; settings: for Fold changes of MICs: EKO-35 araC::mdtEF Pore compared to EKO-35-Pore; for MIC: Escherichia coli, Table 14A, porinated, technical duplicate, read-out: Minimum inhibitory concentration, EKO-35 araC::mdtEF Pore
In short: as §2

[19] = tested on: EKO-35 araC::mexCD Pore; test: as above; settings: for Fold changes of MICs: EKO-35 araC::mexCD Pore compared to EKO-35-Pore; for MIC: Escherichia coli, EKO-35 araC::mexCD Pore, technical duplicate, read-out: Minimum inhibitory concentration
In short: as §2

[20] = Table 10, without pore, read-out: Minimum inhibitory concentration (MIC), EKO-35
[21] = Table 13A, non-porinated, read-out: Minimum Inhibitory Concentration, EKO-35
[22] = Table 10, without pore, read-out: Minimum inhibitory concentration (MIC), K-12
[23] = Table 13A, non-porinated, read-out: Minimum Inhibitory Concentration, K-12
[24] = Table 10, with pore, read-out: Minimum inhibitory concentration (MIC), Pore K-12
[25] = Table 14A, porinated, read-out: Minimum inhibitory concentration, K-12 (WT)-Pore
[26] = Table 10, with pore, read-out: Minimum inhibitory concentration (MIC), Pore EKO-35
[27] = Table 14A, porinated, read-out: Minimum inhibitory concentration, EKO-35-Pore

Row | SMILES | Fold change of MICs [1] [fold] | MIC [1, 20] [µg/mL] | MIC [1, 21] [µg/mL] | MIC [2] [µg/mL] | Minimum inhibitory concentration (MIC), ΔtolC [2] [µg/mL] | MIC [3, 22] [µg/mL] | MIC [3, 23] [µg/mL] | Fold change of MICs [4] [fold] | MIC [4] [µg/mL] | Fold change of MICs [5] [fold] | Fold change of MICs [6] [fold] | MIC [7, 24] [µg/mL] | MIC [7, 25] [µg/mL] | MIC [8] [µg/mL] | Minimum inhibitory concentration (MIC), Pore ΔtolC [8] [µg/mL] | Fold changes of MICs [9] [fold] | Fold changes of MICs [10] [fold] | Fold changes of MICs [11] [fold] | MIC [11] [µg/mL] | Fold changes of MICs [12] [fold] | further results
1 | CC(=O)NC[C@H]1CN(c2ccc(N3CCOCC3)c(F)c2)C(=O)O1 [linezolid] | 1 | 7.81 | 7.81 | 7.81 | 7.813 | 500 | 500 | 1 | 7.81 | 2 | 1 | 125 | 125 | 3.91 | 3.906 | 1 | 16 | 1 | 3.91 | 2 | MIC [5]: 15.6 µg/mL; MIC [6]: 3.91 µg/mL; MIC [9, 26]: 3.91 µg/mL; MIC [9, 27]: 3.91 µg/mL; MIC [10]: 62.5 µg/mL; MIC [12]: 7.81 µg/mL; Fold changes of MICs [13]: 2 fold; MIC [13]: 7.81 µg/mL; Fold changes of MICs [14]: 2 fold; MIC [14]: 7.81 µg/mL; Fold changes of MICs [15]: 1 fold; MIC [15]: 3.91 µg/mL; Fold changes of MICs [16]: 1 fold; MIC [16]: 3.91 µg/mL; Fold changes of MICs [17]: 1 fold; MIC [17]: 3.91 µg/mL; Fold changes of MICs [18]: 2 fold; MIC [18]: 7.81 µg/mL; Fold changes of MICs [19]: 2 fold; MIC [19]: 7.81 µg/mL
2 | Nc1ccc(S(=O)(=O)Nc2nccs2)cc1 [Sulfathiazole] | 1 | 10 | 10 | 5 | 5 | 5 | 5 | 1 | 10 | 1 | 1 | 5 | 5 | 2.5 | 2.5 | 1 | 2 | 0 | 1.25 | 1 | MIC [5]: 10 µg/mL; MIC [6]: 10 µg/mL; MIC [10]: 10 µg/mL; Fold changes of MICs [13]: 1 fold; Fold changes of MICs [14]: 2 fold; MIC [14]: 10 µg/mL; Fold changes of MICs [15]: 1 fold; Fold changes of MICs [16]: 2 fold; MIC [16]: 10 µg/mL; Fold changes of MICs [17]: 1 fold; Fold changes of MICs [18]: 2 fold; MIC [18]: 10 µg/mL; Fold changes of MICs [19]: 1 fold
3 | NC[C@H]1O[C@H](O[C@H]2[C@H](O)[C@@H](O[C@H]3O[C@H](CO)[C@@H](O)[C@H](N)[C@H]3O)[C@H](N)C[C@@H]2N)[C@H](O)[C@@H](O)[C@@H]1O [kanamycin] | 1 | 3.12 | 3.12 | 1.56 | 1.563 | 3.12 | 3.12 | 1 | 1.56 | 1 | 1 | 3.12 | 3.12 | 1.56 | 1.563 | 1 | 2 | 1 | 0.781 | 1 | MIC [9, 26]: 1.56 µg/mL; MIC [9, 27]: 1.56 µg/mL; MIC [12]: 1.56 µg/mL; Fold changes of MICs [13]: 1 fold; MIC [13]: 1.56 µg/mL; Fold changes of MICs [14]: 1 fold; MIC [14]: 1.56 µg/mL; Fold changes of MICs [15]: 1 fold; MIC [15]: 1.56 µg/mL; Fold changes of MICs [16]: 2 fold; Fold changes of MICs [17]: 1 fold; MIC [17]: 1.56 µg/mL; Fold changes of MICs [18]: 1 fold; MIC [18]: 1.56 µg/mL; Fold changes of MICs [19]: 1 fold; MIC [19]: 1.56 µg/mL
4 | CN(C)[C@@H]1C(O)=C(C(N)=O)C(=O)[C@@]2(O)C(O)=C3C(=O)c4c(O)cccc4[C@@](C)(O)[C@H]3C[C@@H]12 [tetracycline] | 1 | 0.195 | 0.195 | 0.391 | 0.391 | 1.56 | 1.56 | 1 | 0.195 | 1 | 1 | 0.781 | 0.781 | 0.391 | 0.391 | 1 | 2 | 1 | 0.195 | 1 | MIC [5]: 0.195 µg/mL; MIC [6]: 0.195 µg/mL; MIC [9, 26]: 0.195 µg/mL; MIC [9, 27]: 0.195 µg/mL; MIC [10]: 0.391 µg/mL; MIC [12]: 0.195 µg/mL; Fold changes of MICs [13]: 1 fold; MIC [13]: 0.195 µg/mL; Fold changes of MICs [14]: 1 fold; MIC [14]: 0.195 µg/mL; Fold changes of MICs [15]: 1 fold; MIC [15]: 0.195 µg/mL; Fold changes of MICs [16]: 1 fold; MIC [16]: 0.195 µg/mL; Fold changes of MICs [17]: 1 fold; MIC [17]: 0.195 µg/mL; Fold changes of MICs [18]: 1 fold; MIC [18]: 0.195 µg/mL; Fold changes of MICs [19]: 1 fold; MIC [19]: 0.195 µg/mL
